Values joined by “and” are separate entries in the source; they are usually repeats but may differ in a detail not shown here. Equal entries are not always repeated. Where two headings read alike, the source gives them in different places.
How the values were obtained:
Plasmodium falciparum = assay: In vitro drug screening model against Plasmodium falciparum (drug sensitivity assay, Malstat LDH read-out); format: cell-based; conditions: for IC50: Plasmodium falciparum; for score: score in brackets after the IC50, scale not defined
Protocol: Malaria: In Vitro Drug Screening Model Against Plasmodium falciparum
Two strains of P. falciparum were used: 1/GHA strain (P. falGHA), derived from a Ghanese patient and chloroquine sensitive and 2/W-2 strain (P.falW2) from CDC/Indochina III and resistant to chloroquine, quinine, pyrimethamine, but susceptible to mefloquine. The strains were maintained in RPMI-1640 medium supplemented with 0.37 mM hypoxanthine, 25 mM Hepes, 25 mM NaHCO3, and 10% O+ human serum together with 2-4% washed human O+ erythrocytes (Adaptation of the procedures described by Trager, W.; Jensen J. B. Science 1976, 193, 673-677). All cultures and assays were conducted at 37° C. under an atmosphere of 4% CO2, 3% O2 and 93% N2.
Compound stock solutions were prepared in 100% DMSO at 20 mM or mg/ml (Concentrations are standard expressed in molar concentrations). The compounds were serially pre-diluted (2-fold or 4-fold) in DMSO followed by a further (intermediate) dilution in demineralized water to assure a final in-test DMSO concentration of <1%.
Assays were performed in sterile 96-well microtiter plates, each well containing 10 μl of the watery compound dilutions together with 190 μl of the malaria parasite inoculum (1% parasitaemia, 2% HCT). Parasite growth was compared to untreated-infected (100% growth) and uninfected-controls (0% growth). After 72 h incubation at 37° C., plates were frozen at −20° C. After thawing, 20 μl of each well was transferred into another plate together with 100 μl Malstat reagent (Lactate dehydrogenase (LDH)-test, according to Makler et al.: Am. J. Trop Med. Hyg, 48, 7339-741, 1993) and 20 μl of a 1/1 mixture of PES (phenazine ethosulfat, 0.1 mg/ml) and NBT (NitroBlue Tetrazolium Grade III, 2 mg/ml). The plates were kept out of light for 2 hours and change in color was measured spectrophotometrically at 655 nm. The results were expressed as % reduction in parasitaemia compared to control wells. For each compound, an IC50 was calculated.
The GHA strain was used. Compounds were tested at 5 concentrations (64-16-4-1 and 0.25 μM or μg/ml). […] Some of the compounds were evaluated in a secondary screening.
Additional strains (GHA, W2, D6, NF54) were included and the IC50-values were determined using an extended dose range (2-fold compound dilutions). Artesunate and chloroquine were included as reference drugs.

[1] = test system: other strains of parasites; assay: Activity against other strains of parasites (selectivity); format: cell-based
[2] = Table 2, P. falciparum, strain not given, 72 h incubation, read-out: IC50

SMILES	IC50 (Plasmodium falciparum; 72 h)	IC50 (Plasmodium falciparum; [2]) [µg/mL]	score (Plasmodium falciparum; Table 2)	melting point [°C]	activity against some other strains of parasites (selectivity compared to chloroquine) [1]
C[C@H]1[C@H](OC(=O)CCC(=O)O)O[C@@H]2O[C@@]3(C)CC[C@H]4[C@H](C)CC[C@@H]1[C@@]24OO3 [Artesunate, reference compound]	5 nM				
CCN(CC)CCCC(C)Nc1ccnc2cc(Cl)ccc12 (stereo not drawn) [Chloroquine, chloroquine, reference compound]	50 nM and 0.04 µg/mL				
c1ccc2[nH]c(-c3ccc(OCCCOc4ccc(-c5nc6ccccc6[nH]5)cc4)cc3)nc2c1 [Compound 1, 2,2′-[1,3-propanediylbis(oxy-1,4-phenylene)]bis-1H-benzimidazole]		16.6	1	> 300	
c1ccc2[nH]c(-c3ccc(OCCCCOc4ccc(-c5nc6ccccc6[nH]5)cc4)cc3)nc2c1 [Compound 2, 2,2′-[1,4-butanediylbis(oxy-1,4-phenylene)]bis-1H-benzimidazole]				> 300	
c1ccc2[nH]c(-c3ccc(OCCCCCOc4ccc(-c5nc6ccccc6[nH]5)cc4)cc3)nc2c1 [Compound 3, 2,2′-[1,5-pentanediylbis(oxy-1,4-phenylene)]bis-1H-benzimidazole]		0.49	3	> 300	not active
c1ccc2[nH]c(-c3ccc(OCCCCCCOc4ccc(-c5nc6ccccc6[nH]5)cc4)cc3)nc2c1 [Compound 4, 2,2′-[1,6-hexanediylbis(oxy-1,4-phenylene)]bis-1H-benzimidazole]				> 300	
c1ccc2[nH]c(-c3ccc(OCCCCCCCOc4ccc(-c5nc6ccccc6[nH]5)cc4)cc3)nc2c1 [Compound 5, 2,2′-[1,7-heptanediylbis(oxy-1,4-phenylene)]bis-1H-benzimidazole]				298 to 301	
c1cc(OCCCCCOc2cccc(-c3nc4ccccc4[nH]3)c2)cc(-c2nc3ccccc3[nH]2)c1 [Compound 6, 2,2′-[1,5-pentanediylbis(oxy-1,3-phenylene)]bis-1H-benzimidazole]		3.91	2	240 to 243	
c1ccc(-c2nc3ccccc3[nH]2)c(OCCCCCOc2ccccc2-c2nc3ccccc3[nH]2)c1 [Compound 7, 2,2′-[1,5-pentanediylbis(oxy-1,2-phenylene)]bis-1H-benzimidazole]		8.31	2	190 to 193	
